The test deals with T1, full-length human Mineralocorticoid Receptor (MR) (Homo sapiens, UniProt P08235).
T1 construct: host or cells: PathHunter CHO-K1 cells
T1 sequence (P08235 1-984): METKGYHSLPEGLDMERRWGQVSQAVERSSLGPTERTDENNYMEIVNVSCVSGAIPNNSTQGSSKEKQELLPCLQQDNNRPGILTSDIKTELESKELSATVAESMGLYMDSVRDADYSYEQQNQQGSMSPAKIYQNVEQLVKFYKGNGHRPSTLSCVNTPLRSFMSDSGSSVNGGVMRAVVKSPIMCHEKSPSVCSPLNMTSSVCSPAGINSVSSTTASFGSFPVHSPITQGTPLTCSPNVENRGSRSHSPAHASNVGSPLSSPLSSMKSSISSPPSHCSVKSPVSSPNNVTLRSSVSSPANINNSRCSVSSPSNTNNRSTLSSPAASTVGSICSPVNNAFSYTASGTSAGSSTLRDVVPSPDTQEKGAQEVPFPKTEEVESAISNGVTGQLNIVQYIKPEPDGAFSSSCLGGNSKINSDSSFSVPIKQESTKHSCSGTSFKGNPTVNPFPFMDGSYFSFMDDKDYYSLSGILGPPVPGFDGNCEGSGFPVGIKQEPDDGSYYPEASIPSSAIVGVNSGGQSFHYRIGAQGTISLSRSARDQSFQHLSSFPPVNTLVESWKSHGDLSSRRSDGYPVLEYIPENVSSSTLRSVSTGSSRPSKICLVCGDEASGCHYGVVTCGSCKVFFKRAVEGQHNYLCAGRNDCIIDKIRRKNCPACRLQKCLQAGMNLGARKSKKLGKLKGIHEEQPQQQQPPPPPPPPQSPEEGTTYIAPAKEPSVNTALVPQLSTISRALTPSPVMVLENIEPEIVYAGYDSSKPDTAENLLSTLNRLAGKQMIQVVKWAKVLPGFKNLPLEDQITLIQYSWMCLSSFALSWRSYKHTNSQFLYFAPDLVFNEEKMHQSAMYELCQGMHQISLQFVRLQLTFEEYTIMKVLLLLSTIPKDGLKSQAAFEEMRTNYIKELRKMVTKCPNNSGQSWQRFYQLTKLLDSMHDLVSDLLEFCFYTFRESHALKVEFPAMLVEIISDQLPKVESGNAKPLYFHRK
In words: human MR NH Pro assay (PathHunter Protein:Protein interaction assay), MR antagonist activity. It counts as cell-based. Conditions: PathHunter CHO-K1 cells overexpressing human MR; aldosterone about 0.3 nM; 6 hours at 37° C.; luminescence; read-out: Primary Assay IP rating (IP = inflection point for a given dose-response titration curve). In a few lines: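 PathHunter enzyme-complementation assay in cells of full-length human MR recruitment of a coactivator peptide, run in antagonist mode against aldosterone at about 0.3 to 1.0 nM final. Compounds are in a 10-point, 1:3 series from a 4.4 mM top. Incubation is 6 h at 37° C, then detection reagent for 1 h at RT, with a luminescence read-out.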
For the compound `CCC(c1ccc(Cl)cc1)(c1noc(-c2ccc(F)cc2)n1)n1ccc2c(NS(C)(=O)=O)cccc21` (stereo not shown) [Compound 59, N-(1-{1-(4-chlorophenyl)-1-[5-(4-fluorophenyl)-1,2,4-oxadiazol-3-yl]propyl}-1H-indol-4-yl)methanesulfonamide], the IC50 is under 100 nM.

`CCC(c1ccc(Cl)cc1)(c1noc(-c2ccc(Cl)cc2)n1)n1ccc2c(NS(C)(=O)=O)cccc21` (stereo not shown) [Compound 60, N-(1-{1-(4-chlorophenyl)-1-[5-(4-chlorophenyl)-1,2,4-oxadiazol-3-yl]propyl}-1H-indol-4-yl)methanesulfonamide]: the IC50 was under 100 nM.

On to `CC[C@@](c1ccc(Cl)cc1)(c1noc(-c2ccc(OC)cc2)n1)n1ccc2c(NS(C)(=O)=O)cccc21` [Compound 61, (R)—N-(1-{1-(4-chlorophenyl)-1-[5-(4-methoxyphenyl)-1,2,4-oxadiazol-3-yl]propyl}-1H-indol-4-yl)methanesulfonamide], for which the IC50 was under 100 nM. The value for `CS(=O)(=O)Nc1cccc2c1ccn2C(c1ccc(Cl)cc1)c1nc(-c2ccccc2)no1` (stereo not shown) [Compound 63, N-{1-[(4-chlorophenyl)(3-phenyl-1,2,4-oxadiazol-5-yl)methyl]-1H-indol-4-yl}methanesulfonamide] was 500 to 5000 nM; that for `CC[C@@](c1ccc(Cl)cc1)(c1nc(-c2ccccc2)n[nH]1)n1ccc2c(NS(C)(=O)=O)cccc21` [Compound 64, (R)—N-{1-[1-(4-chlorophenyl)-1-(3-phenyl-1H-1,2,4-triazol-5-yl)propyl]-1H-indol-4-yl}methanesulfonamide] was 500 to 5000 nM. The value for `CC[C@@](c1ccc(Cl)cc1)(c1nnc(C)[nH]1)n1ccc2c(NS(C)(=O)=O)cccc21` [Compound 65, (R)—N-{1-[1-(4-chlorophenyl)-1-(5-methyl-4H-1,2,4-triazol-3-yl)propyl]-1H-indol-4-yl}methanesulfonamide] was 100 to 500 nM; that for `CC[C@@](c1ccc(Cl)cc1)(c1nnc(C(F)(F)F)[nH]1)n1ccc2c(NS(C)(=O)=O)cccc21` [Compound 66, (R)—N-(1-{1-(4-chlorophenyl)-1-[5-(trifluoromethyl)-4H-1,2,4-triazol-3-yl]propyl}-1H-indol-4-yl)methanesulfonamide] was 100 to 500 nM; that for `CC[C@@](c1ccc(Cl)cc1)(c1nnc(C2CC2)o1)n1ccc2c(NS(C)(=O)=O)cccc21` [Compound 67, (R)—N-{1-[1-(4-chlorophenyl)-1-(5-cyclopropyl-1,3,4-oxadiazol-2-yl)propyl]-1H-indol-4-yl}methanesulfonamide] was 100 to 500 nM.

In the case of `CCC(c1ccc(Cl)cc1)(c1nnc(C)o1)n1ccc2c(NS(C)(=O)=O)cccc21` (stereo not shown) [Compound 68, N-{1-[1-(4-chlorophenyl)-1-(5-methyl-1,3,4-oxadiazol-2-yl)propyl]-1H-indol-4-yl}methanesulfonamide], the IC50 was 100 to 500 nM. Under `CCC(c1ccc(Cl)cc1)(c1nnc(C(F)(F)F)o1)n1ccc2c(NS(C)(=O)=O)cccc21` (stereo not shown) [Compound 69, N-(1-{1-(4-chlorophenyl)-1-[5-(trifluoromethyl)-1,3,4-oxadiazol-2-yl]propyl}-1H-indol-4-yl)methanesulfonamide] stands 100 to 500 nM; under `CCC(c1ccc(Cl)cc1)(c1nnc(-c2ccccc2)o1)n1ccc2c(NS(C)(=O)=O)cccc21` (stereo not shown) [Compound 70, N-{1-[1-(4-chlorophenyl)-1-(5-phenyl-1,3,4-oxadiazol-2-yl)propyl]-1H-indol-4-yl}methanesulfonamide], 500 to 5000 nM. `CCC(c1ccc(Cl)cc1)(c1nnc(-c2ccc(Cl)cc2)o1)n1ccc2c(NS(C)(=O)=O)cccc21` (stereo not shown) [Compound 71, N-(1-{1-(4-chlorophenyl)-1-[5-(4-chlorophenyl)-1,3,4-oxadiazol-2-yl]propyl}-1H-indol-4-yl)methanesulfonamide]: the IC50 was under 100 nM. Under `CCC(c1ccc(Cl)cc1)(c1nnc(-c2ccc(F)cc2)o1)n1ccc2c(NS(C)(=O)=O)cccc21` (stereo not shown) [Compound 72, N-(1-{1-(4-chlorophenyl)-1-[5-(4-fluorophenyl)-1,3,4-oxadiazol-2-yl]propyl}-1H-indol-4-yl)methanesulfonamide] stands 100 to 500 nM; under `CCC(c1ccc(Cl)cc1)(c1nnc(-c2ccc(C(F)(F)F)cc2)o1)n1ccc2c(NS(C)(=O)=O)cccc21` (stereo not shown) [Compound 73, N-{1-[1-(4-chlorophenyl)-1-{5-[4-(trifluoromethyl)phenyl]-1,3,4-oxadiazol-2-yl}propyl]-1H-indol-4-yl}methanesulfonamide], 100 to 500 nM; under `CCC(c1ccc(Cl)cc1)(c1nnc(-c2ccc(OC)cc2)o1)n1ccc2c(NS(C)(=O)=O)cccc21` (stereo not shown) [Compound 74, N-(1-{1-(4-chlorophenyl)-1-[5-(4-methoxyphenyl)-1,3,4-oxadiazol-2-yl]propyl}-1H-indol-4-yl)methanesulfonamide], 100 to 500 nM.

In the case of `CCC(c1ccc(Cl)cc1)(c1nnc(-c2cc(F)cc(F)c2)o1)n1ccc2c(NS(C)(=O)=O)cccc21` (stereo not shown) [Compound 75, N-(1-{1-(4-chlorophenyl)-1-[5-(3,5-difluorophenyl)-1,3,4-oxadiazol-2-yl]propyl}-1H-indol-4-yl)methanesulfonamide], the IC50 lay in the range of 500 to 5000 nM. Turning to `CS(=O)(=O)Nc1cccc2c1ccn2C(CC#N)(c1ccc(Cl)cc1)c1nnc(-c2ccccc2)o1` (stereo not shown) [Compound 76, N-{1-[1-(4-chlorophenyl)-2-cyano-1-(5-phenyl-1,3,4-oxadiazol-2-yl)ethyl]-1H-indol-4-yl}methanesulfonamide], the IC50 lay in the range of 100 to 500 nM. In the case of `CCC(c1ccc(Cl)cc1)(c1nc(-c2ccccc2)co1)n1ccc2c(NS(C)(=O)=O)cccc21` (stereo not shown) [Compound 77, N-{1-[1-(4-chlorophenyl)-1-(4-phenyl-1,3-oxazol-2-yl)propyl]-1H-indol-4-yl}methanesulfonamide], the IC50 lay within 500 to 5000 nM.

`COC(=O)C(c1cccc(-c2cccc(OC)c2)c1)n1ccc2c(NS(C)(=O)=O)cccc21` (stereo not shown) [Compound 78]: the IC50 fell in the range of 500 to 5000 nM.

Consider `CS(=O)(=O)Nc1cccc2c1ccn2C1(c2ccc(Cl)cc2)CCNC1=O` (stereo not shown) [Compound 84, N-{1-[3-(4-chlorophenyl)-2-oxopyrrolidin-3-yl]-1H-indol-4-yl}methanesulfonamide], for which the IC50 lay in the range of 100 to 500 nM.

With `CCC(CO)(c1ccc(Cl)cc1)n1ccc2c(NS(C)(=O)=O)cc(F)cc21` (stereo not shown) [Compound 85, N-(1-(2-(4-chlorophenyl)-1-hydroxybutan-2-yl)-6-fluoro-1H-indol-4-yl)methanesulfonamide], the IC50 was 100 to 500 nM. The value for `CCC(CO)(c1ccc(Cl)cc1Cl)n1ccc2c(NS(C)(=O)=O)cccc21` (stereo not shown) [Compound 87, N-(1-(2-(2,4-dichlorophenyl)-1-hydroxybutan-2-yl)-1H-indol-4-yl)methane sulfonamide] was 100 to 500 nM; that for `CCC(CO)(c1ccc(C(F)(F)F)cc1)n1ncc2c(NS(C)(=O)=O)cccc21` (stereo not shown) [Compound 89, N-(1-(1-hydroxy-2-(4-(trifluoromethyl)phenyl)butan-2-yl)-1H-indazol-4-yl)methanesulfonamide] was 100 to 500 nM; that for `CCC(c1ccc(Cl)cc1)(n1ncc2c(NS(=O)(=O)NC)cccc21)C(C)(C)O` (stereo not shown) [Compound 94] was under 100 nM. Under `CCC(c1ccc(Cl)cc1)(n1ncc2c(NS(=O)(=O)N(C)C)cccc21)C(C)(C)O` (stereo not shown) [Compound 95, 3-(1-(3-(4-chlorophenyl)-2-hydroxy-2-methylpentan-3-yl)-1H-indazol-4-yl)-1,1-dimethyl-sulfonylurea] stands 100 to 500 nM.

Source of the values: patent US8933113B2 (Merck Sharp & Dohme Corp., priority 2011, dated 2015).
